Values of other authors, collected in patent publication EP0986632B1, “DELIVERY SYSTEMS” (THE PROCTER & GAMBLE COMPANY, priority 1997, dated 1998).

Conditions: 25°C; from M. L. Tobe, Adv. Inorg Bioinorg. Mech. (1983), 2, Table 1 at page 17

Compound	base hydrolysis rates (kOH) [M⁻¹ s⁻¹]
O=CO [formate]	0.00058
oxalate	0.00025
N#CS [NCS^-]	0.0005
CC(=O)O [acetate]	0.00096
